Legend:
[1] = molecular target: NPC1-like intracellular cholesterol transporter 1 (Rattus norvegicus, UniProt Q6T3U3); assay: Displacement of [3H]ezetimibe-glucuronide from NPC1L1 in Sprague-Dawley rat brush border membrane
[2] = system: Hamster; assay: Inhibition of cholesterol absorption in chow fed hamster at 3 mg/kg, po; type: functional; conditions: Cricetinae
[3] = Half life in rat hepatocytes; type: ADME, cell-based, Liver, Hepatocyte
[4] = Metabolic stability assessed as half life in rat liver microsomes; type: ADME, Microsome

NPC1-like intracellular cholesterol transporter 1, sequence (Q6T3U3 21-1331 limits assumed): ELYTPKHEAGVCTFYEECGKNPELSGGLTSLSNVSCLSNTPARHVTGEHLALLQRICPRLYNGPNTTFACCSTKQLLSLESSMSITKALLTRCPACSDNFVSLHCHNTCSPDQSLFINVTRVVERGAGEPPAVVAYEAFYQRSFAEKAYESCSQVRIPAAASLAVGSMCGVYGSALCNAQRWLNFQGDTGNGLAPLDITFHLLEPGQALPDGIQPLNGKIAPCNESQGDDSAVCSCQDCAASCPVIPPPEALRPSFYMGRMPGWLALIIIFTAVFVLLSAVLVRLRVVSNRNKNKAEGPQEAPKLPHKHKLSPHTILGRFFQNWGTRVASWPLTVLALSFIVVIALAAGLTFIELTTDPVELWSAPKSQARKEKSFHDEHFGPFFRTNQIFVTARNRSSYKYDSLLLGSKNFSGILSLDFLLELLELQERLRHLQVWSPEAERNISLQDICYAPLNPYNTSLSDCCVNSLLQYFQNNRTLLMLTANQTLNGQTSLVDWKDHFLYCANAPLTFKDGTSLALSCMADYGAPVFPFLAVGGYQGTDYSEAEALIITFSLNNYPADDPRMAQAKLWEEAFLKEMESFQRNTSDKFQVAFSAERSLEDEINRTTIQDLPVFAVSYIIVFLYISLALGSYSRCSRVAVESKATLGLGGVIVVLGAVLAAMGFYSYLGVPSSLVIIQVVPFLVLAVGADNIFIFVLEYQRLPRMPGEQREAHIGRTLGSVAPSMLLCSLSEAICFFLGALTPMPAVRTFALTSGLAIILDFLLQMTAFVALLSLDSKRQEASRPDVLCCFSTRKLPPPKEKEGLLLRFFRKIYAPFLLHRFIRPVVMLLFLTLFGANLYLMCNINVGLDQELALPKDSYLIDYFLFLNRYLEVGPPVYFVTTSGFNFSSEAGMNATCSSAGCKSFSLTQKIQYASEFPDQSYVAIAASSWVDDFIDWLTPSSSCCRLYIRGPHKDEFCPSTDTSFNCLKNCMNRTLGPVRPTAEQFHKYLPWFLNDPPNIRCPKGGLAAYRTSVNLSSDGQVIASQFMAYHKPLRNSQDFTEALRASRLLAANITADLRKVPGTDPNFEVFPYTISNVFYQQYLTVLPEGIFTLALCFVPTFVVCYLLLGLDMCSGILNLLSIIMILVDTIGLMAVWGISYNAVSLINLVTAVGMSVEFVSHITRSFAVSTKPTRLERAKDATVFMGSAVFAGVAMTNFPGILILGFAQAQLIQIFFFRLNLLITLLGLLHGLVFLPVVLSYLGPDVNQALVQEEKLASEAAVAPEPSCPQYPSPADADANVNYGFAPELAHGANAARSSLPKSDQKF

Row | SMILES | Ki [1] [µM] | other results
1 | COc1ccc(O)c([C@@H]2[C@@H]([C@H](O)CCc3ccccc3)OC(=O)N2c2cccc(F)c2)c1 | > 50 | –
2 | O=C(O)[C@H]1O[C@@H](Oc2ccc([C@@H]3[C@@H]([C@H](O)CCc4ccccc4)OC(=O)N3c3ccc(F)cc3)cc2)[C@H](O)[C@@H](O)[C@@H]1O | > 50 | –
3 | COc1cccc(CN(C)C(=O)[C@H]2OC(=O)N(c3ccc(F)cc3)[C@@H]2c2ccc(O)cc2)c1 | 11 | –
4 | O=C1O[C@H]([C@H](O)CCc2ccccc2)[C@@H](c2cccc(F)c2O)N1c1cccc(F)c1 | > 50 | inhibition in vivo at 3 mg/kg [2]: 0%
5 | O=C1O[C@H]([C@H](O)CCc2ccccc2)[C@@H](c2ccc(O)cc2)N1c1ccccc1F | > 50 | –
6 | O=C1O[C@H]([C@H](O)CCc2ccccc2)[C@@H](c2cc(F)ccc2O)N1c1cccc(F)c1 | 18 | inhibition in vivo at 3 mg/kg [2]: 0%
7 | Cc1ccc([C@@H]2[C@@H]([C@H](O)CCc3ccccc3)OC(=O)N2c2cccc(F)c2)c(O)c1 | 16 | –
8 | COc1ccc([C@@H]2[C@@H]([C@H](O)CCc3ccccc3)OC(=O)N2c2ccc(F)cc2)c(O)c1 | 4.8 | half-life [3]: 4.15 h
9 | COc1ccc([C@@H]2[C@@H]([C@H](O)CCc3ccccc3)OC(=O)N2c2ccc(F)cc2)c(OC)c1 | > 50 | –
10 | O=C1O[C@H]([C@H](O)CCc2ccccc2)[C@@H](c2ccc(O)cc2O)N1c1ccc(F)cc1 | 9.2 | half-life [3]: 2.27 h
11 | O=C1O[C@H](CC[C@H](O)c2ccc(F)cc2)[C@@H](c2ccc(O)cc2)N1c1ccc(F)cc1 | 9.9 | –
12 | O=C1O[C@H]([C@H](O)CCc2ccccc2)[C@@H](c2ccccc2O)N1c1ccc(F)cc1 | 12 | inhibition in vivo at 3 mg/kg [2]: 0%
13 | COc1ccc([C@@H]2[C@@H](C(=O)N3CCc4ccccc4C3)OC(=O)N2c2cccc(F)c2)c(O)c1 | 3.6 | –
14 | O=C(NCc1ccc(F)cc1)[C@H]1OC(=O)N(c2ccc(F)cc2)[C@@H]1c1ccc(O)cc1 | 30 | –
15 | COc1ccc([C@@H]2[C@@H]([C@H](O)CCc3ccccc3)OC(=O)N2c2cccc(F)c2)c(O)c1 | 2.3 | –
16 | O=C1O[C@H]([C@H](O)CCc2ccccc2)[C@@H](c2ccc(O)cc2)N1c1cccc(F)c1 | 11 | half-life [3]: 1.18 h
17 | COc1ccc([C@@H]2[C@@H](C(=O)N(C)Cc3ccc(F)cc3)OC(=O)N2c2cccc(F)c2)c(O)c1 | 1.4 | inhibition in vivo at 3 mg/kg [2]: 0%

Row | SMILES | Ki [1] [µM] | other results
18 | O=C1O[C@H]([C@H](O)COc2ccc(F)cc2)[C@@H](c2ccc(O)cc2)N1c1ccc(F)cc1 | 28 | half-life [3]: 1.12 h
19 | CN(Cc1ccc(F)cc1)C(=O)[C@H]1OC(=O)N(c2ccc(F)cc2)[C@@H]1c1ccc(O)cc1 | 14 | –
20 | COc1cccc(OC[C@@H](O)[C@H]2OC(=O)N(c3ccc(F)cc3)[C@@H]2c2ccc(O)cc2)c1 | 15 | –
21 | COc1ccc(OC[C@@H](O)[C@H]2OC(=O)N(c3ccc(F)cc3)[C@@H]2c2ccc(O)cc2)cc1 | > 50 | –
22 | O=C(O)[C@H]1O[C@@H](Oc2ccc([C@@H]3[C@@H](CC[C@H](O)c4ccc(F)cc4)C(=O)N3c3ccc(F)cc3)cc2)[C@H](O)[C@@H](O)[C@@H]1O | 0.18 | half-life [4]: > 1 h
23 | O=C(NC[C@H]1OC(=O)N(c2ccc(F)cc2)[C@@H]1c1ccc(O)cc1)c1ccc(F)cc1 | > 50 | –
24 | COc1cccc([C@@H]2[C@@H]([C@H](O)CCc3ccccc3)OC(=O)N2c2cccc(F)c2)c1O | 5.7 | –
25 | O=C1O[C@H]([C@H](O)COc2ccc(Cl)cc2)[C@@H](c2ccc(O)cc2)N1c1ccc(F)cc1 | 49 | –
26 | O=C1O[C@H]([C@H](O)CNc2ccc(F)cc2)[C@@H](c2ccc(O)cc2)N1c1ccc(F)cc1 | 19 | –
27 | COc1ccc([C@@H]2[C@@H]([C@H](O)COc3ccc(F)cc3)OC(=O)N2c2cccc(F)c2)c(O)c1 | 28 | inhibition in vivo at 3 mg/kg [2]: 0%
28 | O=C1O[C@H]([C@H](O)CCc2ccccc2)[C@@H](c2ccc(F)cc2O)N1c1cccc(F)c1 | 19 | inhibition in vivo at 3 mg/kg [2]: 0%
29 | COc1ccc([C@@H]2[C@@H](CCCc3ccccc3)OC(=O)N2c2ccc(OC)cc2)cc1 | > 50 | –
30 | COc1cccc(OC[C@@H](O)[C@H]2OC(=O)N(c3cccc(F)c3)[C@@H]2c2ccc(OC)cc2O)c1 | 8.7 | –
31 | O=C1O[C@H]([C@H](O)CCc2ccccc2)[C@@H](c2cccc(O)c2)N1c1ccc(F)cc1 | 33 | –
32 | O=C1O[C@H]([C@H](O)CCc2ccccc2)[C@@H](c2ccc(O)cc2)N1c1ccc(F)cc1 | > 50 | –
33 | O=C1[C@H](CC[C@H](O)c2ccc(F)cc2)[C@@H](c2ccc(O)cc2)N1c1ccc(F)cc1 [EZETIMIBE] | 0.2 | half-life [4]: 0.158 h; half-life [3]: 0.717 h
